Test results reported in patent publication US20240108740A1, “THERAPEUTIC COMPOSITIONS INCLUDING SPN10 AND USES THEREOF” (Stealth BioTherapeutics Inc., priority 2022, published 2024).
Residues, ends and D or L forms follow the SMILES beside them.

How the values were obtained:
Wild-type (WT) mice = assay: Example 2: acute cerebral ischemia (occlusion of the right middle cerebral artery); format: in vivo, mouse
Protocol: Cerebral ischemia will be induced by occlusion of the right middle cerebral artery for 30 min. Wild-type (WT) mice will be given either saline vehicle (Veh) (i.p., n=9), peptide conjugates (2 mg/kg or 5 mg/kg, i.p., n=6), aromatic-cationic peptides (e.g., an equivalent molar dose of aromatic-cationic peptide based on the concentration of the aromatic-cationic peptide administered in the peptide conjugate treatment group), SPN10(s) (e.g., an equivalent molar dose of SPN10 based on the concentration of SPN10 administered in the peptide conjugate treatment group), or SPN10(s) in combination with aromatic-cationic peptides (e.g., an equivalent molar dose of SPN10 based on the concentration of SPN10 administered in the peptide conjugate treatment group and an equivalent molar dose of aromatic-cationic peptide based on the concentration of aromatic-cationic peptide administered in the peptide conjugate treatment group) at 0, 6, 24 and 48 hours after ischemia. Mice will be sacrificed 3 days after ischemia. Brains will be frozen, sectioned, and stained using Nissl stain. Infarct volume and hemispheric swelling will be determined using an image analyzer. Data will be analyzed by one-way ANOVA with posthoc analysis.

CD36 = assay: Example 4: CD36 mRNA in post-ischemic brain (real time PCR); format: in vivo, mouse; conditions: treatment at 0 and 6 hours after 30 minute ischemia
Protocol: Wild-type mice will be given saline vehicle (Veh, i.p., n=6), peptide conjugates (5 mg/kg, i.p., n=6), aromatic-cationic peptides (e.g., an equivalent molar dose of aromatic-cationic peptide based on the concentration of the aromatic-cationic peptide administered in the peptide conjugate treatment group), SPN10(s) (e.g., an equivalent molar dose of SPN10 based on the concentration of SPN10 administered in the peptide conjugate treatment group), or SPN10(s) in combination with aromatic-cationic peptides (e.g., an equivalent molar dose of SPN10 based on the concentration of SPN10 administered in the peptide conjugate treatment group and an equivalent molar dose of aromatic-cationic peptide based on the concentration of aromatic-cationic peptide administered in the peptide conjugate treatment group) at 0 and 6 hours after a 30 minute period of ischemia. Levels of CD36 mRNA in post-ischemic brain will be determined using real time PCR.

[1] = test system: Isolated mouse pancreatic islet cells; assay: Example 30: oxidative damage in pancreatic islet cells; format: cell-based; conditions: 25 μM t-BHP
Protocol: Isolated mouse pancreatic islet cells will be treated with 25 μM t-BHP alone or in the presence of peptide conjugates, aromatic-cationic peptides, or SPN10(s) with or without aromatic-cationic peptides. Mitochondrial membrane potential will be measured by TMRM (red) and reactive oxygen species will be measured by DCF (green) using confocal microscopy.

Sprague-Dawley rats = assay: Example 40: contrast-induced nephropathy in diabetic animals; format: in vivo, rat; conditions: iohexol
Protocol: Animal model: Impaired renal function caused by diabetes is one of the major predisposing factors for contrast induced nephropathy (McCullough, et al., J. Am. Coll. Cardio., 2008, 51, 1419-1428). In this experiment, a total of 57 Sprague-Dawley rats will be fed a high-fat diet for 6 weeks, followed by the administration of low-dose streptozotocin (30 mg/kg) for a period of 9 weeks. Blood glucose, serum creatinine and Cystatin C will be measured. Animals meeting the following criteria (n=20) will advance to CIN studies: Scr>250 μM, Cystatin C>750 ng/mL and blood glucose>=[…]. […]
On day 1, serum samples will be collected and total urine protein will be measured using a Bradford assay. […] Samples will be analyzed by students t-test and differences will be considered significant at p<0.05.
Renal function: Renal function will be assessed by determining serum and urinary creatinine at baseline, 48 hours and 72 hours following dye administration. The creatinine clearance will be calculated based on the serum and urinary creatinine and urinary volume. Urinary protein concentration will be determined by Bradford Protein Assay kit (Sigma, St. Louis, MO, U.S.A.), and Cystatin C will be measured using a Westang Rat Cystatin C kit (Shanghai, P.R.C.).

murine burn injury model = assay: Example 48: skeletal muscle redox state after burn injury (nitroxide EPR); format: in vivo, mouse; conditions: 6-hour time point; i.p. 30 minutes before and immediately after burn
Protocol: The redox state of the gastrocnemius muscle immediately below a local cutaneous burn (90° C. for 3 sec) will be evaluated by nitroxide EPR. It is anticipated that the redox state in the muscle will be compromised by burn injury, with the most dramatic effect at 6 hours post-burn.
Peptide conjugates (3 mg/kg), aromatic-cationic peptides (an equivalent molar dose of aromatic-cationic peptide based on the concentration of the aromatic-cationic peptide administered in the peptide conjugate treatment group), SPN10(s) (an equivalent molar dose of SPN10 based on the concentration of SPN10 administered in the peptide conjugate treatment group) or SPN10(s) in combination with aromatic-cationic peptides (e.g., an equivalent molar dose of SPN10 based on the concentration of SPN10 administered in the peptide conjugate treatment group and an equivalent molar dose of aromatic-cationic peptide based on the concentration of aromatic-cationic peptide administered in the peptide conjugate treatment group) will be administered i.p. 30 minutes before burn, and immediately after burn.

N=C(N)NCCC[C@H](NC(=O)[C@@H](N)Cc1c[nH]c2ccccc12)C(=O)N[C@@H](Cc1c[nH]c2ccccc12)C(=O)N[C@@H](CCCCN)C(N)=O [SPN10, H-L-Trp-L-Arg-L-Trp-L-Lys-NH2] (H-WRWK-NH2)
depletion of GSH in the ipsilateral cortex (Wild-type (WT) mice; 2 mg/kg i.p. at 0, 6, 24 and 48 hours): significantly be reduced
infarct volume and hemispheric swelling (Wild-type (WT) mice; treatment at 0, 6, 24 and 48 hours after 30 minute occlusion, compared to saline): significant reduction in infarct volume and hemispheric swelling
CD36 mRNA in the ipsilateral brain (CD36): significantly reduced
oxidative damage in isolated pancreatic islet cells [1]: protect against oxidative damage
elevated serum Cystatin C and reduced creatinine clearance following contrast dye (Sprague-Dawley rats): attenuate these effects
rate of nitroxide reduction in muscle beneath the burn (murine burn injury model): significantly increase the rate of nitroxide reduction
